From PMC5218480 (PLoS ONE, 2017)

System: MV-4-11 cells
Experiment: Gene expression microarray analysis (Affymetrix PrimeView) and GSEA
Format: cell-based, human
Parameters: RFU PODN (11730768_x_at) / Fold change /veh PODN (11730768_x_at) / RFU LINC00158 (11744669_a_at) / Fold change /veh LINC00158 (11744669_a_at) / RFU DUSP10 (11751237_a_at) / Fold change /veh DUSP10 (11751237_a_at) / RFU ID3 (11757404_x_at) / Fold change /veh ID3 (11757404_x_at) / RFU PLEKHG5 (11737974_s_at) / Fold change /veh PLEKHG5 (11737974_s_at) / RFU LRRC4B (11730491_at) / Fold change /veh LRRC4B (11730491_at) / RFU GIMAP4 (11747438_a_at) / Fold change /veh GIMAP4 (11747438_a_at) / RFU KRT8 (11758183_x_at) / Fold change /veh KRT8 (11758183_x_at) / RFU CNN1 (11734310_a_at) / Fold change /veh CNN1 (11734310_a_at) / RFU VPS37D (11726825_at) / Fold change /veh VPS37D (11726825_at) / RFU C10orf10 (11716522_x_at) / Fold change /veh C10orf10 (11716522_x_at) / RFU KIR2DL2 /// KIR2DL4 /// KIR2DL5A /// KIR2DL5B /// KIR2DS1 /// KIR2DS2 /// KIR2DS3 /// KIR2DS4 /// KIR3DL3 /// KIR3DL3 /// KIR3DS1 (11738374_at) / Fold change /veh KIR2DL2 /// KIR2DL4 /// KIR2DL5A /// KIR2DL5B /// KIR2DS1 /// KIR2DS2 /// KIR2DS3 /// KIR2DS4 /// KIR3DL3 /// KIR3DL3 /// KIR3DS1 (11738374_at) / RFU C1QL1 (11718748_at) / Fold change /veh C1QL1 (11718748_at) / RFU TMPRSS4 (11747572_a_at) / Fold change /veh TMPRSS4 (11747572_a_at) / RFU HAMP (11756126_x_at) / Fold change /veh HAMP (11756126_x_at) / RFU RNFT2 (11725882_a_at) / Fold change /veh RNFT2 (11725882_a_at) / RFU NR4A2 (11747474_a_at) / Fold change /veh NR4A2 (11747474_a_at) / RFU ABCC12 (11746883_a_at) / Fold change /veh ABCC12 (11746883_a_at) / RFU TMEM136 (11760407_x_at) / Fold change /veh TMEM136 (11760407_x_at) / RFU CLDN22 /// WWC2 (11732394_at) / Fold change /veh CLDN22 /// WWC2 (11732394_at) / RFU HLA-DPB1 (11760878_x_at) / Fold change /veh HLA-DPB1 (11760878_x_at) / RFU SPINT1 (11716480_a_at) / Fold change /veh SPINT1 (11716480_a_at) / RFU GAP43 (11754022_s_at) / Fold change /veh GAP43 (11754022_s_at) / RFU A4GNT (11735810_at) / Fold change /veh A4GNT (11735810_at) / RFU PRB3 (11715151_x_at) / Fold change /veh PRB3 (11715151_x_at) / RFU TUBB4B (11761932_at) / Fold change /veh TUBB4B (11761932_at) / RFU CAPN14 (11732068_a_at) / Fold change /veh CAPN14 (11732068_a_at) / RFU TMCC2 (11721928_a_at) / Fold change /veh TMCC2 (11721928_a_at) / RFU IRGQ (11745062_a_at) / Fold change /veh IRGQ (11745062_a_at) / RFU FAM174B (11720279_a_at) / Fold change /veh FAM174B (11720279_a_at) / RFU TMPRSS4 (11748680_a_at) / Fold change /veh TMPRSS4 (11748680_a_at) / RFU FAM212B (11763350_a_at) / Fold change /veh FAM212B (11763350_a_at) / RFU PLEKHG5 (11743358_a_at) / Fold change /veh PLEKHG5 (11743358_a_at) / RFU ZSCAN30 (11745921_a_at) / Fold change /veh ZSCAN30 (11745921_a_at) / RFU CMKLR1 (11741424_a_at) / Fold change /veh CMKLR1 (11741424_a_at) / RFU LOC101060620 /// MAPK8IP1 (11723275_at) / Fold change /veh LOC101060620 /// MAPK8IP1 (11723275_at) / RFU SPTSSB (11747773_x_at) / Fold change /veh SPTSSB (11747773_x_at) / RFU PRSS12 (11739890_at) / Fold change /veh PRSS12 (11739890_at) / RFU BIN1 (11741810_x_at) / Fold change /veh BIN1 (11741810_x_at) / RFU WNT11 (11732464_a_at) / Fold change /veh WNT11 (11732464_a_at) / RFU C10orf10 (11716521_a_at) / Fold change /veh C10orf10 (11716521_a_at) / RFU C5orf56 (11738089_at) / Fold change /veh C5orf56 (11738089_at) / RFU CYB561 (11721691_x_at) / Fold change /veh CYB561 (11721691_x_at) / RFU ANKRD19P (11752326_a_at) / Fold change /veh ANKRD19P (11752326_a_at) / RFU OR2T12 /// OR2T33 /// OR2T8 (11738714_s_at) / Fold change /veh OR2T12 /// OR2T33 /// OR2T8 (11738714_s_at) / RFU VCAN (11748164_a_at) / Fold change /veh VCAN (11748164_a_at) / RFU JSRP1 (11732532_at) / Fold change /veh JSRP1 (11732532_at) / RFU KRTAP10-11 (11738290_x_at) / Fold change /veh KRTAP10-11 (11738290_x_at) / RFU MYO3A (11730013_a_at) / Fold change /veh MYO3A (11730013_a_at) / RFU EBF3 (11725865_a_at) / Fold change /veh EBF3 (11725865_a_at) / RFU CAMK2N1 (11719241_x_at) / Fold change /veh CAMK2N1 (11719241_x_at) / RFU C5orf56 (11738088_a_at) / Fold change /veh C5orf56 (11738088_a_at) / RFU OLFML3 (11715873_a_at) / Fold change /veh OLFML3 (11715873_a_at) / RFU LOC100653217 /// NTM (11731650_a_at) / Fold change /veh LOC100653217 /// NTM (11731650_a_at) / RFU MAPK11 (11762145_a_at) / Fold change /veh MAPK11 (11762145_a_at) / RFU FIZ1 (11724087_x_at) / Fold change /veh FIZ1 (11724087_x_at) / RFU OASL (11726364_x_at) / Fold change /veh OASL (11726364_x_at) / RFU SOX15 (11748057_x_at) / Fold change /veh SOX15 (11748057_x_at) / RFU CD79A (11719716_a_at) / Fold change /veh CD79A (11719716_a_at) / RFU HIST1H1D (11736915_at) / Fold change /veh HIST1H1D (11736915_at) / RFU CASKIN2 (11723855_a_at) / Fold change /veh CASKIN2 (11723855_a_at) / RFU LOC730098 (11760151_x_at) / Fold change /veh LOC730098 (11760151_x_at) / RFU OR4N2 (11742367_at) / Fold change /veh OR4N2 (11742367_at) / RFU PRRT2 (11749266_a_at) / Fold change /veh PRRT2 (11749266_a_at) / RFU SNX32 (11753110_a_at) / Fold change /veh SNX32 (11753110_a_at) / RFU CDHR5 (11726645_a_at) / Fold change /veh CDHR5 (11726645_a_at) / RFU RCAN1 (11760418_a_at) / Fold change /veh RCAN1 (11760418_a_at) / RFU FAM167A (11723789_a_at) / Fold change /veh FAM167A (11723789_a_at) / RFU FAM26E (11764081_at) / Fold change /veh FAM26E (11764081_at) / RFU ISYNA1 (11749810_s_at) / Fold change /veh ISYNA1 (11749810_s_at) / RFU ACY1 (11761880_at) / Fold change /veh ACY1 (11761880_at) / RFU 11764098_at / Fold change /veh 11764098_at / RFU SAMD14 (11745864_x_at) / Fold change /veh SAMD14 (11745864_x_at) / RFU NPB (11741838_a_at) / Fold change /veh NPB (11741838_a_at) / RFU TMPRSS6 (11731388_a_at) / Fold change /veh TMPRSS6 (11731388_a_at) / RFU KRTAP10-2 (11738614_at) / Fold change /veh KRTAP10-2 (11738614_at) / RFU ARHGAP8 /// PRR5-ARHGAP8 (11727945_x_at) / Fold change /veh ARHGAP8 /// PRR5-ARHGAP8 (11727945_x_at) / RFU KRTAP5-7 /// NADSYN1 (11734609_at) / Fold change /veh KRTAP5-7 /// NADSYN1 (11734609_at) / RFU RASL12 (11751679_a_at) / Fold change /veh RASL12 (11751679_a_at) / RFU CDKN2B (11736163_a_at) / Fold change /veh CDKN2B (11736163_a_at) / RFU PRF1 (11729649_at) / Fold change /veh PRF1 (11729649_at) / RFU, ZNF638 /// ZNF638-IT1 / Fold change vs veh, ZNF638 /// ZNF638-IT1 / RFU, PANK3 / Fold change vs veh, PANK3 / RFU, SH3YL1 / Fold change vs veh, SH3YL1 / RFU, ZEB2 / Fold change vs veh, ZEB2 / RFU, NRIP1 / Fold change vs veh, NRIP1 / RFU, PTTG1IP / Fold change vs veh, PTTG1IP / RFU, CAPN2 / Fold change vs veh, CAPN2 / RFU, MED14 / Fold change vs veh, MED14 / RFU, SNORA58 / Fold change vs veh, SNORA58 / RFU, C1orf63 / Fold change vs veh, C1orf63 / RFU, LRRFIP1 / Fold change vs veh, LRRFIP1 / RFU, NDUFAF7 / Fold change vs veh, NDUFAF7 / RFU, SLC12A2 / Fold change vs veh, SLC12A2 / RFU, IBTK / Fold change vs veh, IBTK / RFU, ESF1 / Fold change vs veh, ESF1 / Fold change vs veh, TMEM50B / RFU, TAOK1 / Fold change vs veh, TAOK1 / RFU, ACBD3 / Fold change vs veh, ACBD3 / RFU, TMA16 / Fold change vs veh, TMA16 / RFU, RWDD3 / Fold change vs veh, RWDD3 / RFU, BCAT1 / Fold change vs veh, BCAT1 / RFU, EDEM3 / Fold change vs veh, EDEM3 / RFU, TMEM33 / Fold change vs veh, TMEM33 / RFU, WDR75 / Fold change vs veh, WDR75 / RFU, AHCTF1 / Fold change vs veh, AHCTF1 / RFU, TFRC / Fold change vs veh, TFRC / RFU, ZDHHC17 / Fold change vs veh, ZDHHC17 / RFU, NOM1 / Fold change vs veh, NOM1 / RFU, ARL8B / Fold change vs veh, ARL8B / RFU, ZBTB11 / Fold change vs veh, ZBTB11 / RFU, TAMM41 / Fold change vs veh, TAMM41 / RFU, KIAA1704 /// LOC100996395 / Fold change vs veh, KIAA1704 /// LOC100996395 / RFU, ING1 / Fold change vs veh, ING1 / RFU, TRMT61B / Fold change vs veh, TRMT61B / RFU, FUBP3 / Fold change vs veh, FUBP3 / RFU, TP53 / Fold change vs veh, TP53 / RFU, TNKS2 / Fold change vs veh, TNKS2 / RFU, ZFP14 / Fold change vs veh, ZFP14 / RFU, ACTR2 / Fold change vs veh, ACTR2 / RFU, PPP3R1 / Fold change vs veh, PPP3R1 / RFU, PIK3R1 / Fold change vs veh, PIK3R1 / RFU, HNRNPA1 / Fold change vs veh, HNRNPA1 / RFU, RNF170 / Fold change vs veh, RNF170 / RFU, ZNF28 / Fold change vs veh, ZNF28 / RFU, RNGTT / Fold change vs veh, RNGTT / RFU, OGT / Fold change vs veh, OGT / RFU, BRD1 / Fold change vs veh, BRD1 / RFU, MARS / Fold change vs veh, MARS / RFU, ZNF655 / Fold change vs veh, ZNF655 / RFU, FAHD1 / Fold change vs veh, FAHD1 / RFU, BDP1 / Fold change vs veh, BDP1 / RFU, LRRCC1 / Fold change vs veh, LRRCC1 / RFU, ARID1A / Fold change vs veh, ARID1A / RFU, ZNF146 / Fold change vs veh, ZNF146 / RFU, ZNF330 / Fold change vs veh, ZNF330 / RFU, GPN3 / Fold change vs veh, GPN3 / RFU, C9orf123 / Fold change vs veh, C9orf123 / RFU, N4BP2L2 / Fold change vs veh, N4BP2L2 / RFU, ARFIP1 / Fold change vs veh, ARFIP1 / RFU, FAM179B / Fold change vs veh, FAM179B / RFU, BCL10 / Fold change vs veh, BCL10 / RFU, UHRF1BP1L / Fold change vs veh, UHRF1BP1L / RFU, BET1 / Fold change vs veh, BET1 / RFU, CNOT2 / Fold change vs veh, CNOT2 / RFU, ZNF268 / Fold change vs veh, ZNF268 / Fold change vs veh, ZNF507 / RFU, DGCR2 / Fold change vs veh, DGCR2 / RFU, WDSUB1 / Fold change vs veh, WDSUB1 / Fold change vs veh, HSP90B1 /// MIR3652 / RFU, ADSS / Fold change vs veh, ADSS / RFU, GK / Fold change vs veh, GK / RFU, ZNF148 / Fold change vs veh, ZNF148 / RFU, TAF9 / Fold change vs veh, TAF9 / RFU, SLC1A5 / Fold change vs veh, SLC1A5 / RFU, SLMO2 / Fold change vs veh, SLMO2 / RFU, ABCC4 / Fold change vs veh, ABCC4 / RFU, LOC101060439 /// RAP1B / Fold change vs veh, LOC101060439 /// RAP1B / RFU, RFX7 / Fold change vs veh, RFX7 / RFU, GTPBP10 / Fold change vs veh, GTPBP10 / RFU, CNEP1R1 / Fold change vs veh, CNEP1R1 / RFU, BIVM-ERCC5 /// ERCC5 / Fold change vs veh, BIVM-ERCC5 /// ERCC5 / RFU, ILF3 / Fold change vs veh, ILF3 / RFU 11762660_at / Fold change /veh 11762660_at / RFU VCAN (11757783_s_at) / Fold change /veh VCAN (11757783_s_at) / RFU DDX43 (11728927_at) / Fold change /veh DDX43 (11728927_at) / RFU KRT8 (11758188_x_at) / Fold change /veh KRT8 (11758188_x_at) / RFU NKD1 (11759106_at) / Fold change /veh NKD1 (11759106_at) / RFU SRD5A1 (11742802_a_at) / Fold change /veh SRD5A1 (11742802_a_at) / RFU TPSAB1 /// TPSB2 (11721975_s_at) / Fold change /veh TPSAB1 /// TPSB2 (11721975_s_at) / RFU GSTM3 (11746129_a_at) / Fold change /veh GSTM3 (11746129_a_at) / RFU IL23R (11737362_x_at) / Fold change /veh IL23R (11737362_x_at) / RFU TMEM51 (11727254_a_at) / Fold change /veh TMEM51 (11727254_a_at) / RFU PIWIL2 (11732686_x_at) / Fold change /veh PIWIL2 (11732686_x_at) / RFU ORM1 (11744905_x_at) / Fold change /veh ORM1 (11744905_x_at) / RFU CCDC152 (11743942_at) / Fold change /veh CCDC152 (11743942_at) / RFU ECM1 (11717891_a_at) / Fold change /veh ECM1 (11717891_a_at) / RFU IL23R (11748794_a_at) / Fold change /veh IL23R (11748794_a_at) / RFU TNFAIP8L3 (11732012_x_at) / Fold change /veh TNFAIP8L3 (11732012_x_at) / RFU MBOAT4 (11741988_at) / Fold change /veh MBOAT4 (11741988_at) / RFU 11764193_at / Fold change /veh 11764193_at / RFU TMEM53 (11763286_at) / Fold change /veh TMEM53 (11763286_at) / RFU MAGEB2 (11727129_at) / Fold change /veh MAGEB2 (11727129_at) / RFU TMEM200A (11744735_a_at) / Fold change /veh TMEM200A (11744735_a_at) / RFU CCDC152 (11751479_a_at) / Fold change /veh CCDC152 (11751479_a_at) / RFU FAM211A (11726209_a_at) / Fold change /veh FAM211A (11726209_a_at) / RFU RGS16 (11746705_a_at) / Fold change /veh RGS16 (11746705_a_at) / RFU VCAN (11755009_s_at) / Fold change /veh VCAN (11755009_s_at) / RFU RHOB (11743442_s_at) / Fold change /veh RHOB (11743442_s_at) / RFU RGS16 (11720943_a_at) / Fold change /veh RGS16 (11720943_a_at) / RFU RGS16 (11720944_at) / Fold change /veh RGS16 (11720944_at) / RFU, VPS4B / Fold change vs veh, VPS4B / RFU, CREB1 / Fold change vs veh, CREB1 / RFU, DNAJC13 / Fold change vs veh, DNAJC13 / RFU, GNAQ / Fold change vs veh, GNAQ / RFU, CDK5R1 / Fold change vs veh, CDK5R1 / RFU, ZRANB3 / Fold change vs veh, ZRANB3 / RFU, CUL4A / Fold change vs veh, CUL4A / RFU, CCNY / Fold change vs veh, CCNY / RFU, UFL1 / Fold change vs veh, UFL1 / RFU, COG3 / Fold change vs veh, COG3 / RFU, DIAPH2 / Fold change vs veh, DIAPH2 / RFU, SKA2 / Fold change vs veh, SKA2 / RFU, AFF3 / Fold change vs veh, AFF3 / RFU, LMF1 / Fold change vs veh, LMF1 / RFU, IPO11 / Fold change vs veh, IPO11 / RFU, DFFB / Fold change vs veh, DFFB / RFU, FOXP1 / Fold change vs veh, FOXP1 / RFU, CARD8 / Fold change vs veh, CARD8 / RFU, STRN3 / Fold change vs veh, STRN3 / RFU, ADK / Fold change vs veh, ADK / RFU, RASSF2 / Fold change vs veh, RASSF2 / RFU, WIPF1 / Fold change vs veh, WIPF1 / RFU, LARP1B / Fold change vs veh, LARP1B / RFU, RASA1 / Fold change vs veh, RASA1 / RFU, RB1 / Fold change vs veh, RB1 / RFU, PPFIA1 / Fold change vs veh, PPFIA1 / RFU, MAT2A / Fold change vs veh, MAT2A / RFU, CCT5 / Fold change vs veh, CCT5 / RFU, WDR92 / Fold change vs veh, WDR92 / RFU, CUX1 / Fold change vs veh, CUX1 / RFU, TTC7A / Fold change vs veh, TTC7A / RFU, TMEM135 / Fold change vs veh, TMEM135 / RFU, DEPTOR / Fold change vs veh, DEPTOR / RFU, CPM / Fold change vs veh, CPM / RFU, DNAJB6 / Fold change vs veh, DNAJB6 / RFU, CACNA2D3 / Fold change vs veh, CACNA2D3 / RFU, DTX4 / Fold change vs veh, DTX4 / RFU, TFCP2 / Fold change vs veh, TFCP2 / RFU, GMCL1 /// GMCL1P1 / Fold change vs veh, GMCL1 /// GMCL1P1 / RFU, AEBP2 / Fold change vs veh, AEBP2 / RFU, SNHG1 /// SNORD22 /// SNORD25 /// SNORD26 /// SNORD27 /// SNORD28 /// SNORD29 /// SNORD31 / Fold change vs veh, SNHG1 /// SNORD22 /// SNORD25 /// SNORD26 /// SNORD27 /// SNORD28 /// SNORD29 /// SNORD31 / Fold change (Aza/veh), C12orf56 (ProbeSet 11735607_a_at) / Fold change (ACY-1035/veh), C12orf56 (ProbeSet 11735607_a_at) / Fold change (Aza/veh), FGFR1OP (ProbeSet 11751329_s_at) / Fold change (ACY-1035/veh), FGFR1OP (ProbeSet 11751329_s_at) / Fold change (Aza/veh), VPS36 (ProbeSet 11739960_a_at) / Fold change (ACY-1035/veh), VPS36 (ProbeSet 11739960_a_at) / RFU SYPL1 (11715823_x_at) / Fold change /veh SYPL1 (11715823_x_at) / RFU IGFBP7 (11715501_s_at) / Fold change /veh IGFBP7 (11715501_s_at) / RFU REEP3 (11722064_at) / Fold change /veh REEP3 (11722064_at) / RFU IGLL1 (11728026_x_at) / Fold change /veh IGLL1 (11728026_x_at): dose or concentration left out as unconfirmed
Settings: ProbeSet 11719632_a_at; LIST B

Question: Which “Fold change vs veh, ABCC4” value does the source give for `Nc1ccc(-c2cccs2)cc1NC(=O)c1ccc2c(c1)cc(C1CC1)n2CCN1CCOCC1` [ACY-1035] here?
Answer: The value was 0.87.
